In ChEMBL document CHEMBL1909046, “DrugMatrix in vitro pharmacology data” one finds IC50 and Ki data, which are given here for eight molecules.

Data set [1] can be described thus: DRUGMATRIX: Nicotinic Acetylcholine radioligand binding (ligand: [125I] Epibatidine). It is filed as cell membranes, Membrane. The following applies: imr-32; Not Active = under 50% inhibition at 10 µM.
Data set [2] is described as follows: DRUGMATRIX: Sigma2 radioligand binding (ligand: [3H] Ifenprodil). Particulars: Not Active = under 50% inhibition at 10 µM. It is filed as cell membranes, Rattus norvegicus, Wistar, Brain, Membrane.
Data set [3] deals with T1, Neuropeptide Y receptor type 2 (Homo sapiens, UniProt P49146).
T1 sequence (P49146 whole entry): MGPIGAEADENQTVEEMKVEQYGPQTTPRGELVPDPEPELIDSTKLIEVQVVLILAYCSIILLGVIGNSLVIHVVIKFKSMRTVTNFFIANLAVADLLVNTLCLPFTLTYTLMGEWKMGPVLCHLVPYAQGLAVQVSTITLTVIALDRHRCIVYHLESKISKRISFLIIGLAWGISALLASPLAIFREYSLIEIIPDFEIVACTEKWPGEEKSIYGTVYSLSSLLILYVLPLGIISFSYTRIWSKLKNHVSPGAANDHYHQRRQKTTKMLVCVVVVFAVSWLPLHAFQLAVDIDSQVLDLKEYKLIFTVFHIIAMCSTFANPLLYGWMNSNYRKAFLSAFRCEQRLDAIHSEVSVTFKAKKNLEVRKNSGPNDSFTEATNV
It is filed as cell membranes, Membrane. Particulars: kan-ts.

The target of data set [4] is Protein kinase C alpha type (Homo sapiens, UniProt P17252). It is filed as cell-based. The following applies: sf9.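 Note: inhibition of PKCalpha kinase activity measured in an enzyme assay with histone as the phosphorylation substrate; in other assays of this panel Not Active means under 50% inhibition at 10 µM.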
The target in data set [5] is Epidermal growth factor receptor (Homo sapiens, UniProt P00533). Nature of the data set: DRUGMATRIX: Protein Tyrosine Kinase, EGF Receptor enzyme inhibition (substrate: Poly(Glu:Tyr)). It is filed as cell-based, Insect cells. Particulars: insect cells, Not Active = under 50% inhibition at 10 µM.
A further data set addresses Cytochrome P450 2E1 (Homo sapiens, UniProt P05181). The following applies: bti-tn-5b1-4.
For a further data set, the target named is T2, Substance-K receptor (Homo sapiens, UniProt P21452). Note: in other assays of this panel Not Active means under 50% inhibition at 10 µM.
T2 sequence (P21452 whole entry): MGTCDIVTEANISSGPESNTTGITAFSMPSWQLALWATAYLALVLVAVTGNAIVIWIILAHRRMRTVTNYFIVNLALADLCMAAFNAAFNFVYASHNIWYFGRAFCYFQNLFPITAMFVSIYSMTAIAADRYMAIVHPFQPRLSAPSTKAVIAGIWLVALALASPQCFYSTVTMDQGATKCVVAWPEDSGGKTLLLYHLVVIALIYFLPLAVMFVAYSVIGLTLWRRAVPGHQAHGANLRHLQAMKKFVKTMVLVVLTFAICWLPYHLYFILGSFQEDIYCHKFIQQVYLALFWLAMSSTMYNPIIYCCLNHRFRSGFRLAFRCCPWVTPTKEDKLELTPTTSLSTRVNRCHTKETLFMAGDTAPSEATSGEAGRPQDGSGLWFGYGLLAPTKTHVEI
It is filed as cell membranes, CHO, Membrane.

Chain of Cytochrome P450 2E1 (P05181 whole entry): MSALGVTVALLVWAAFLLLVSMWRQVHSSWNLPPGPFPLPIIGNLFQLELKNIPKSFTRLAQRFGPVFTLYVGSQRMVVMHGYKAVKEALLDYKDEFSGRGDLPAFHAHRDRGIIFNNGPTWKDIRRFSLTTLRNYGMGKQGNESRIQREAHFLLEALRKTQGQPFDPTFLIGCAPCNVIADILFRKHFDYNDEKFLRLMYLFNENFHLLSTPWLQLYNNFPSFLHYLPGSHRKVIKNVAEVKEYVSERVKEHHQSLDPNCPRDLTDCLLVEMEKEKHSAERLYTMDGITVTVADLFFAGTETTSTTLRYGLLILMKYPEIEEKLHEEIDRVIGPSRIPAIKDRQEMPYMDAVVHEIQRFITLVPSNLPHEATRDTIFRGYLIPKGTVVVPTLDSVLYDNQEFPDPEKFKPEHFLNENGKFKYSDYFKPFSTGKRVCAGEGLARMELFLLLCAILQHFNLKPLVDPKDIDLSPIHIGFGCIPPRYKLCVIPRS

In the case of `CCN(CC)CCOC(=O)c1ccc(N)cc1` [PROCAINE], the IC50 result (in data set [1]; in data set [2]; in data set [3]; in data set [4]; in data set [5]; against Cytochrome P450 2E1) was “Not Active” in each case. On Substance-K receptor (cho), the IC50 (as a rule, the point on the concentration scale where inhibition reaches its midpoint) is “Not Active”. For the same molecule, the Ki result (in data set [1]; in data set [2]; at Cytochrome P450 2E1) was “Not Active” each time.

Regarding `CCCN(CCC)C(=O)C(CCC(=O)O)NC(=O)c1ccccc1` (centres undefined) [PROGLUMIDE], the IC50 entry (in data set [1]; in data set [2]; in data set [3]; in data set [4]; in data set [5]; against Cytochrome P450 2E1) was “Not Active” in each case. Further, the IC50 entry against Substance-K receptor (cho) is “Not Active”. Further, the Ki entry (in data set [1]; in data set [2]; at Cytochrome P450 2E1) was “Not Active” each time.

With `NC(=O)c1cnccn1` [PYRAZINAMIDE], the IC50 result (in data set [1]; in data set [2]; in data set [3]; in data set [4]; in data set [5]; on Cytochrome P450 2E1) was “Not Active” throughout. Further, the IC50 entry against Substance-K receptor (cho) is on record as “Not Active”. In addition, the Ki entry (in data set [1]; in data set [2]; on Cytochrome P450 2E1) was “Not Active” throughout.

On to `OC(CCN1CCCCC1)(c1ccccc1)C1CCCCC1` (centres undefined) [TRIHEXYPHENIDYL], for which the IC50 entry in data set [1] was “Not Active”; in data set [2] (read-out: IC50), 3120 nM; in data set [3], “Not Active”; in data set [4], “Not Active”; in data set [5] it was “Not Active”; against Cytochrome P450 2E1, “Not Active”. Further, the IC50 entry at Substance-K receptor (cho) is listed as “Not Active”. Further, the Ki (as a rule, a measure of affinity in units of concentration, obtained from inhibition or displacement) in data set [1] was “Not Active”; in data set [2] (read-out: Ki), 1920 nM; at Cytochrome P450 2E1 it was “Not Active”.

For the molecule `Cc1cc2cc3c(C)cc(=O)oc3c(C)c2o1` [TRIOXSALEN], the IC50 result (in data set [1]; in data set [2]; in data set [3]; in data set [4]; in data set [5]; against Cytochrome P450 2E1) was “Not Active” in each case. In addition, at Substance-K receptor (cho), the IC50 entry is “Not Active”. Moreover, the Ki result (in data set [1]; in data set [2]; at Cytochrome P450 2E1) was “Not Active” each time.

As to `CCCC(CCC)C(=O)O` [VALPROIC ACID], the IC50 result (in data set [1]; in data set [2]; in data set [3]; in data set [4]; in data set [5]; against Cytochrome P450 2E1) was “Not Active” throughout. The IC50 entry on Substance-K receptor (cho) is “Not Active”. In addition, the Ki entry (in data set [1]; in data set [2]; on Cytochrome P450 2E1) was “Not Active” each time.

Regarding `CCC1=C[C@@H]2CN(C1)Cc1c([nH]c3ccccc13)[C@@](C(=O)OC)(c1cc3c(cc1OC)N(C)[C@H]1[C@@](O)(C(=O)OC)[C@H](OC(C)=O)[C@]4(CC)C=CCN5CC[C@]31[C@@H]54)C2` [VINORELBINE], the IC50 entry (in data set [1]; in data set [2]; in data set [3]; in data set [4]; in data set [5]; against Cytochrome P450 2E1) was “Not Active” throughout. The IC50 at Substance-K receptor (read-out: IC50) came to 1610 nM. Further, the Ki result was “Not Active” in data set [1], “Not Active” in data set [2], “Not Active” at Cytochrome P450 2E1 and 536 nM on Substance-K receptor (read-out: Ki).

For CADMIUM DICHLORIDE, the IC50 entry in data set [1] was “Not Active”; in data set [2], “Not Active”; in data set [3], “Not Active”; in data set [4] it was “Not Active”; in data set [5] (read-out: IC50) it was 486 nM; against Cytochrome P450 2E1 it was “Not Active”. Moreover, the IC50 entry against Substance-K receptor (cho) is on record as “Not Active”. The Ki result (in data set [1]; in data set [2]; in data set [3]; in data set [4]; on Cytochrome P450 2E1; at Substance-K receptor (cho)) was “Not Active” each time.
